From ChEMBL document CHEMBL1201862, “PubChem BioAssay data set” (2004)
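Values below derive from 48-hour exposures of cells grown in 96-well plates, with endpoints linearly interpolated between the two concentrations bracketing the appropriate inhibition level. GI50 = concentration required for 50% inhibition of growth.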 Calls of active or inactive are those of the source. No stated cut-off is given here; in the data, active = GI50 up to about 1.1 µM and inactive = higher.

Tests used:
Assay in all cases: NCI tumour cell line growth inhibition, 48 h
786-0 = test system: 786-0
A498 = test system: A498
A549 = test system: A549
ACHN = test system: ACHN
CCRF-CEM = test system: CCRF-CEM
COLO 205 = test system: COLO 205
EKVX = test system: EKVX
HCC 2998 = test system: HCC 2998
HCT-116 = test system: HCT-116
HCT-15 = test system: HCT-15
HOP-62 = test system: HOP-62
HOP-92 = test system: HOP-92
HT-29 = test system: HT-29
Hs-578T = test system: Hs-578T
IGROV-1 = test system: IGROV-1
KM12 = test system: KM12
LOX IMVI = test system: LOX IMVI
M14 = test system: M14
MCF7 = test system: MCF7
MDA-MB-231 = test system: MDA-MB-231
MDA-MB-435 = test system: MDA-MB-435
MDA-N = test system: MDA-N
MOLT-4 = test system: MOLT-4
Malme-3M = test system: Malme-3M
NCI-H226 = test system: NCI-H226
NCI-H23 = test system: NCI-H23
NCI-H522 = test system: NCI-H522
NCI/ADR-RES = test system: NCI/ADR-RES
OVCAR-3 = test system: OVCAR-3
OVCAR-4 = test system: OVCAR-4
OVCAR-5 = test system: OVCAR-5
OVCAR-8 = test system: OVCAR-8
PC-3 = test system: PC-3
RPMI-8226 = test system: RPMI-8226
RXF 393 = test system: RXF 393
SF-295 = test system: SF-295
SF-539 = test system: SF-539
SK-MEL-2 = test system: SK-MEL-2
SK-MEL-5 = test system: SK-MEL-5
SK-OV-3 = test system: SK-OV-3
SN12C = test system: SN12C
SNB-75 = test system: SNB-75
SR = test system: SR
T47D = test system: T47D
TK-10 = test system: TK-10
U-251 = test system: U-251
UACC-257 = test system: UACC-257
UACC-62 = test system: UACC-62
UO-31 = test system: UO-31
CAKI-1 = test system: CAKI-1
K562 = test system: K562
NCI-H460 = test system: NCI-H460
SF-268 = test system: SF-268
SNB-19 = test system: SNB-19
SW-620 = test system: SW-620
DU-145 = test system: DU-145
HL-60 = test system: HL-60
SK-MEL-28 = test system: SK-MEL-28

O=C(O)CCc1ccc2c(c1)CC1(Cc3ccccc3C1)C2 was tested, and the GI50 (786-0) was > 100 µM (inactive), the GI50 (A498) was > 100 µM (inactive) and the GI50 (A549) was > 100 µM (inactive). The GI50 (ACHN) was 58.5 µM (inactive), the GI50 (CCRF-CEM) was 80 µM (inactive) and the GI50 (COLO 205) was 78 µM (inactive). For the same molecule, the GI50 (EKVX) was > 100 µM (inactive), the GI50 (HCC 2998) was > 100 µM (inactive) and the GI50 (HCT-116) was > 100 µM (inactive). The GI50 (HCT-15) was > 100 µM, the GI50 (HOP-62) was > 100 µM (inactive) and the GI50 (HOP-92) was > 100 µM (inactive). The GI50 (HT-29) was > 100 µM (inactive), the GI50 (Hs-578T) was > 100 µM (inactive) and the GI50 (IGROV-1) was > 100 µM (inactive). For the same molecule, the GI50 (KM12) was > 100 µM (inactive), the GI50 (LOX IMVI) was > 100 µM (inactive) and the GI50 (M14) was > 100 µM (inactive). For the same molecule, the GI50 (MCF7) was > 100 µM (inactive), the GI50 (MDA-MB-231) was > 100 µM (inactive) and the GI50 (MDA-MB-435) was > 100 µM (inactive). The GI50 (MDA-N) was > 100 µM (inactive), the GI50 (MOLT-4) was > 100 µM (inactive) and the GI50 (Malme-3M) was > 100 µM (inactive). The GI50 (NCI-H226) was 79.8 µM (inactive), the GI50 (NCI-H23) was > 100 µM (inactive) and the GI50 (NCI-H522) was > 100 µM (inactive). For the same molecule, the GI50 (NCI/ADR-RES) was > 100 µM (inactive), the GI50 (OVCAR-3) was > 100 µM (inactive) and the GI50 (OVCAR-4) was 49.3 µM (inactive). The GI50 (OVCAR-5) was > 100 µM (inactive), the GI50 (OVCAR-8) was > 100 µM (inactive) and the GI50 (PC-3) was > 100 µM (inactive). The GI50 (RPMI-8226) was > 100 µM (inactive), the GI50 (RXF 393) was > 100 µM (inactive) and the GI50 (SF-295) was > 100 µM (inactive). For the same molecule, the GI50 (SF-539) was > 100 µM (inactive), the GI50 (SK-MEL-2) was > 100 µM (inactive) and the GI50 (SK-MEL-5) was > 100 µM (inactive). For the same molecule, the GI50 (SK-OV-3) was > 100 µM (inactive), the GI50 (SN12C) was > 100 µM (inactive) and the GI50 (SNB-75) was < 0.01 µM (active). For the same molecule, the GI50 (SR) was 37.9 µM (inactive), the GI50 (T47D) was > 100 µM (inactive) and the GI50 (TK-10) was > 100 µM (inactive). For the same molecule, the GI50 (U-251) was > 100 µM (inactive), the GI50 (UACC-257) was > 100 µM (inactive) and the GI50 (UACC-62) was > 100 µM (inactive). The GI50 (UO-31) was > 100 µM (inactive).
CC(=O)O[C@H]1C(=O)[C@@]2(C)C(C(OC(=O)c3ccccc3)[C@]3(O)CC(OC(=O)[C@H](OC(=O)CCC(=O)O)C(NC(=O)c4ccccc4)c4ccccc4)C(C)=C1C3(C)C)C1(OC(C)=O)COC1C[C@@H]2O (some centres not stated) was tested, and the GI50 (A549) was < 0.0199 µM (active), the GI50 (CAKI-1) was 3.75 µM (inactive) and the GI50 (COLO 205) was < 0.01 µM (active). For the same molecule, the GI50 (HCC 2998) was 0.0191 µM (active), the GI50 (HCT-15) was 1.53 µM and the GI50 (HT-29) was < 0.01 µM (active). The GI50 (Hs-578T) was < 0.01 µM (active), the GI50 (IGROV-1) was 0.0103 µM (active) and the GI50 (K562) was < 0.01 µM (active). For the same molecule, the GI50 (KM12) was < 0.01 µM (active), the GI50 (LOX IMVI) was < 0.0122 µM (active) and the GI50 (MOLT-4) was < 0.0156 µM (active). For the same molecule, the GI50 (NCI-H460) was < 0.01 µM (active), the GI50 (OVCAR-3) was < 0.01 µM (active) and the GI50 (OVCAR-4) was 17.1 µM (inactive). For the same molecule, the GI50 (PC-3) was < 0.01 µM (active), the GI50 (SF-268) was < 0.0166 µM (active) and the GI50 (SK-MEL-5) was < 0.01 µM (active). The GI50 (SNB-19) was 0.0306 µM (active), the GI50 (SR) was < 0.01 µM (active) and the GI50 (SW-620) was < 0.01 µM (active). For the same molecule, the GI50 (T47D) was < 0.0203 µM (active), the GI50 (TK-10) was 0.265 µM (active) and the GI50 (U-251) was < 0.01 µM (active).
In the case of O=C(c1ccccc1)N1C(=S)NC(=N/c2ccccc2)/C1=N\c1ccccc1, the GI50 (786-0) is reported as > 100 µM (inactive), the GI50 (A498) is reported as > 100 µM (inactive) and the GI50 (A549) is reported as > 100 µM (inactive). The GI50 (ACHN) was > 100 µM (inactive), the GI50 (CAKI-1) was > 100 µM (inactive) and the GI50 (CCRF-CEM) was > 100 µM (inactive). For the same molecule, the GI50 (COLO 205) was > 100 µM (inactive), the GI50 (DU-145) was > 100 µM (inactive) and the GI50 (EKVX) was > 100 µM (inactive). For the same molecule, the GI50 (HCC 2998) was > 100 µM (inactive), the GI50 (HCT-116) was > 100 µM (inactive) and the GI50 (HCT-15) was > 100 µM. The GI50 (HL-60) was > 100 µM (inactive), the GI50 (HOP-62) was > 100 µM (inactive) and the GI50 (HT-29) was > 100 µM (inactive). For the same molecule, the GI50 (Hs-578T) was > 100 µM (inactive), the GI50 (IGROV-1) was > 100 µM (inactive) and the GI50 (K562) was > 100 µM (inactive). For the same molecule, the GI50 (KM12) was > 100 µM (inactive), the GI50 (LOX IMVI) was > 100 µM (inactive) and the GI50 (MDA-MB-231) was > 100 µM (inactive). For the same molecule, the GI50 (MDA-MB-435) was > 100 µM (inactive), the GI50 (MDA-N) was > 100 µM (inactive) and the GI50 (MOLT-4) was > 100 µM (inactive). For the same molecule, the GI50 (Malme-3M) was > 100 µM (inactive), the GI50 (NCI-H226) was > 100 µM (inactive) and the GI50 (NCI-H23) was > 100 µM (inactive). For the same molecule, the GI50 (NCI-H460) was > 100 µM (inactive), the GI50 (NCI-H522) was > 100 µM (inactive) and the GI50 (NCI/ADR-RES) was > 100 µM (inactive). The GI50 (OVCAR-4) was > 100 µM (inactive), the GI50 (OVCAR-5) was > 100 µM (inactive) and the GI50 (OVCAR-8) was > 100 µM (inactive). The GI50 (PC-3) was > 100 µM (inactive), the GI50 (RPMI-8226) was > 100 µM (inactive) and the GI50 (RXF 393) was 33.9 µM (inactive). For the same molecule, the GI50 (SF-268) was > 100 µM (inactive), the GI50 (SF-295) was > 100 µM (inactive) and the GI50 (SF-539) was > 100 µM (inactive). For the same molecule, the GI50 (SK-MEL-28) was > 100 µM (inactive), the GI50 (SK-MEL-2) was > 100 µM (inactive) and the GI50 (SK-MEL-5) was > 100 µM (inactive). The GI50 (SK-OV-3) was > 100 µM (inactive), the GI50 (SN12C) was > 100 µM (inactive) and the GI50 (SNB-19) was > 100 µM (inactive). For the same molecule, the GI50 (SNB-75) was > 100 µM (inactive), the GI50 (SR) was > 100 µM (inactive) and the GI50 (SW-620) was > 100 µM (inactive). The GI50 (T47D) was > 100 µM (inactive), the GI50 (TK-10) was > 100 µM (inactive) and the GI50 (U-251) was > 100 µM (inactive). The GI50 (UACC-257) was > 100 µM (inactive), the GI50 (UACC-62) was > 100 µM (inactive) and the GI50 (UO-31) was > 100 µM (inactive).
